Drawing on patent US10738041B2, “Ferroportin inhibitors” (Vifor (International) AG, priority 2015, dated 2020), this text covers IC50 and EC50 for 27 molecules.

The target in one experiment is T1, ferroportin (Fpn) (Mus musculus, UniProt Q9JHI9).
T1 construct: host or cells: J774 mouse macrophage cell line, Fe(III)-NTA induced
T1 sequence (Q9JHI9 1-570): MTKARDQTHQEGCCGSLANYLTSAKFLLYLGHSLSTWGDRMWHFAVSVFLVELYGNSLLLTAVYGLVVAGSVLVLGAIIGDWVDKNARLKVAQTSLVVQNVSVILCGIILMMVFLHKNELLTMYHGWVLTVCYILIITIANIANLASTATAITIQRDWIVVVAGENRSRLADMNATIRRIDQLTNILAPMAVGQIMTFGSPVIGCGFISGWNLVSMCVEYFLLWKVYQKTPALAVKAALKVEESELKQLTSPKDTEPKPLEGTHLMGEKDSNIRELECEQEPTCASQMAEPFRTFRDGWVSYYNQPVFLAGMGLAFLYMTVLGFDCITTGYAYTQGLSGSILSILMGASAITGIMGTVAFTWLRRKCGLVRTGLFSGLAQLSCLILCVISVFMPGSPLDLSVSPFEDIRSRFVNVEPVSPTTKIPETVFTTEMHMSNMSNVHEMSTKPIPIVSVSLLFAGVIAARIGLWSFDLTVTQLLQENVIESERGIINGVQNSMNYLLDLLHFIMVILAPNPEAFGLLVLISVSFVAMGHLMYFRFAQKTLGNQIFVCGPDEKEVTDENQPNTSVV
Kind of experiment: Hepcidin Internalization Assay (J774). It counts as cell-based. Particulars: average of multiple measurements; inhibition of TMR-hepcidin (25 nM) internalization into J774 cells; read-out: J774 IC50. A digest of the protocol: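 Inhibition of fluorescent TMR-hepcidin uptake via ferroportin was imaged in fixed J774 cells after a 2 h, 37 °C co-incubation with compound dilutions; cells were pre-cultured overnight with 200 μM Fe(III)NTA. Internalized TMR signal per cell (Sum(Mean)) was fitted as log(inhibitor) vs. response for IC50, in triplicate.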

A further experiment has as its target T2, human Fpn (Homo sapiens, UniProt Q9NP59).
T2 construct: FLAG (C); made in house; host or cells: Pichia pastoris
T2 sequence (Q9NP59 1-571): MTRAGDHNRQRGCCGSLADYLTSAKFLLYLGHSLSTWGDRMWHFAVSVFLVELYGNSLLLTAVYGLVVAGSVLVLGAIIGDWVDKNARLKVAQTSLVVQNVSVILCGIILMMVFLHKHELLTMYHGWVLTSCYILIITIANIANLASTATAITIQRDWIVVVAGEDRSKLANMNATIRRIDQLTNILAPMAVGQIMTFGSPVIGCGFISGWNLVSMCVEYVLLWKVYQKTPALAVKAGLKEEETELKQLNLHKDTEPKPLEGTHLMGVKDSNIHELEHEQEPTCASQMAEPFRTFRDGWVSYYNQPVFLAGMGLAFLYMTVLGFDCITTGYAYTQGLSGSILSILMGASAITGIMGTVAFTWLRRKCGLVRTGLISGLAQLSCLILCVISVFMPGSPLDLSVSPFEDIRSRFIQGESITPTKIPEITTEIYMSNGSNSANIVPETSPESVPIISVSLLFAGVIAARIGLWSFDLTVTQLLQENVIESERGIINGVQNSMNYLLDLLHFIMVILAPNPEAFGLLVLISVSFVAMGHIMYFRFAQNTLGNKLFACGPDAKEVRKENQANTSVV
Kind of experiment: Biophysical Ferroportin-Hepcidin Binding Assay (fluorescence polarization). Particulars: average of multiple measurements; 1 μM human Fpn, 20 nM TMR-hepcidin; read-out: FP IC50. In outline:
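FP readout: a dose-dependent drop in TMR-hepcidin polarization (mP, from parallel and perpendicular emission) marked blocked binding to FLAG-tagged human Fpn purified from Pichia pastoris. Final levels were 1 μM Fpn and 20 nM TMR-hepcidin, with compound dilutions in duplicate, incubated 90 min at room temperature.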
In general terms: Polarisation of emitted light reports the rotation of a fluorescent probe.

In another experiment the target is T3, human Fpn-GFP fusion (Homo sapiens, UniProt Q9NP59).
T3 construct: expressed in transfected cells; host or cells: HEK-293 cell line #354 (derivative of HEK-293 Tet-ON Advanced, Clontech)
T3 sequence (Q9NP59 1-571): T2 sequence (Q9NP59 1-571)
Kind of experiment: Inhibition of ferroportin mediated iron export activity in an iron response assay (BLAzer). As to conditions: average of multiple measurements; HEK-293 cell line #354; read-out: BLAzer EC50. It counts as cell-based. The text has this:
Intracellular iron levels are indirectly measured in this assay by monitoring the activity of a beta-lactamase (BLA) reporter gene fused to the human ferritin promoter and the associated iron regulatory element (IRE) contained within the 5′ untranslated region of the ferritin mRNA. Expression of ferroportin (Fpn) in such a cell line leads to iron efflux and lower iron levels as reflected by lower activity of the reporter gene. On the other hand, inhibition of Fpn-mediated iron efflux results in elevated cellular iron levels which is detected as increased reporter gene activity. Small molecular weight Fpn inhibitor compounds were tested for dose-dependent effects in this in vitro iron response assay as described below.
The HEK-293 cell line #354 was generated by stable integration of (i) a human Fpn-GFP fusion construct inserted in a derivative of the doxycycline-inducible pTRE-Tight-BI plasmid (Clontech, Cat. 631068) and (ii) a human ferritin promoter-BLA reporter gene into a derivative of the HEK-293 Tet-ON Advanced cell line (Clontech). […] After overnight incubation, 10 μl/well of dilution series of the test compounds were added in quadruplicates and plates were further incubated overnight at 37° C. with 5% CQ. Cells were washed 3 times with HBSS leaving 25 μl per well. BLA activity was detected by adding 5 μl/well of the GeneBlazer reagent CCF4-AM (Invitrogen, Cat. K1085) to the cells. After incubation of the plates in the dark at 18° C. for 60 min., blue and green fluorescence signals were measured in a Safre2 fluorescence plate reader (Tecan) with excitation at 410 nm and emissions at 458 nm (blue) and 522 nm (green). The ratio of blue/green fluorescence as a measure for BLA activity was calculated and EC50 values were determined with the calculated blue/green fluorescence ratios as described for the hepcidin internalization assay.

`Cc1c(CNC(=O)c2csc(CCNCc3nc4ccccc4[nH]3)n2)cnn1C` [Example 100]: the IC50 at ferroportin (Fpn) came out at 460 nM; at human Fpn, 1420 nM. The EC50 on human Fpn-GFP fusion was determined as 6560 nM.

Regarding `O=C(NCc1ncccc1F)c1cncc(CCNCCc2nc3cc(F)ccc3[nH]2)c1` [compound 245], the IC50 worked out at 188 nM at ferroportin (Fpn) and 295 nM on human Fpn. Besides, the EC50 on human Fpn-GFP fusion came to 6140 nM.

As to `N#Cc1ccccc1CNC(=O)c1csc(CCNCc2nc3ccccc3[nH]2)n1` [Example 71], the half-inhibitory concentration (IC50) on ferroportin (Fpn) stood at 240 nM; at human Fpn it was 508 nM. Also, the 50% effective concentration (EC50) on human Fpn-GFP fusion was determined as 1790 nM.

For the molecule `O=C(NCCCCNCc1nc2ccccc2[nH]1)NCc1ncccc1F` [compound 197], the IC50 on ferroportin (Fpn) came out at 610 nM; at human Fpn, 550 nM. The EC50 at human Fpn-GFP fusion is 18100 nM.

As for `O=C(NCc1ncccn1)c1csc(CCNCc2nc3ccccc3[nH]2)n1` [Example 61], the values for the IC50 on ferroportin (Fpn) and on human Fpn were 560 nM and 1690 nM, respectively. Further, the EC50 on human Fpn-GFP fusion was 37500 nM.

For `O=C(NCc1ncccc1F)c1cncc(C2CN(CCc3nc4c(F)cccc4[nH]3)C2)c1` [compound 248], the half-inhibitory concentration (IC50) on ferroportin (Fpn) is 363 nM; on human Fpn it was 306 nM. In addition, at human Fpn-GFP fusion, the EC50 is 6340 nM.

Turning to `Cn1nccc1CNC(=O)c1csc(CCNCc2nc3ccccc3[nH]2)n1` [Example 88], the half-maximal inhibitory concentration (IC50) was found to be 780 nM at ferroportin (Fpn) and 6760 nM on human Fpn. Moreover, the concentration for a half-maximal effect (EC50) at human Fpn-GFP fusion is 13100 nM.

Turning to `Cc1cccc(CNC(=O)c2csc(CCNCc3nc4ccccc4[nH]3)n2)n1` [Example 42], the 50% inhibitory concentration (IC50) at ferroportin (Fpn) was 600 nM; at human Fpn it was 2170 nM. Also, on human Fpn-GFP fusion, the EC50 turned out to be 36300 nM.

As for `Cc1cc(CNC(=O)c2csc(CCNCc3nc4ccccc4[nH]3)n2)ccn1` [Example 99], the half-maximal inhibitory concentration (IC50) was 2990 nM on ferroportin (Fpn) and 4330 nM at human Fpn. For the same molecule, the EC50 at human Fpn-GFP fusion came out at 22800 nM.

As to `Cc1ccc(F)c(CNC(=O)c2csc(CCNCc3nc4ccccc4[nH]3)n2)n1` [Example 79], the values for the half-inhibitory concentration (IC50) at ferroportin (Fpn) and on human Fpn were 37 nM and 820 nM, respectively. In addition, the EC50 at human Fpn-GFP fusion is 840 nM.

On to `O=C(NCc1ccccc1)c1csc(CCNCc2nc3cc(Cl)ccc3[nH]2)n1` [Example 52], for which the figures for the 50% inhibitory concentration (IC50) on ferroportin (Fpn) and on human Fpn were 340 nM and 1360 nM, respectively. Also, at human Fpn-GFP fusion, the EC50 stood at 2080 nM.

For `O=C(CCNCCc1nc2ccccc2[nH]1)NCC(=O)NCc1ncccc1F` [compound 190], the IC50 on ferroportin (Fpn) was determined as 740 nM; at human Fpn, 660 nM. In addition, on human Fpn-GFP fusion, the EC50 is 27300 nM.

Regarding `O=C(NCc1ccc(F)cn1)c1csc(CCNCc2nc3ccccc3[nH]2)n1` [Example 43], the IC50 on ferroportin (Fpn) is 250 nM; at human Fpn, 1520 nM. Also, the 50% effective concentration (EC50) on human Fpn-GFP fusion was determined as 31000 nM.

Regarding `Cn1cncc1CNC(=O)c1csc(CCNCc2nc3ccccc3[nH]2)n1` [Example 84], the IC50 at ferroportin (Fpn) was 400 nM; on human Fpn, 2410 nM. In addition, at human Fpn-GFP fusion, the EC50 is 13200 nM.

As for `O=C(c1csc(CCNCc2nc3ccccc3[nH]2)n1)N1CCc2ccccc2C1` [Example 15], the IC50 at ferroportin (Fpn) stood at 1600 nM; on human Fpn, 1470 nM. Further, the EC50 at human Fpn-GFP fusion came to 2220 nM.

Take `Cc1ccc(CNC(=O)c2csc(CCNCc3nc4ccccc4[nH]3)n2)nn1` [Example 93]: the IC50 on ferroportin (Fpn) came to 530 nM; at human Fpn, 1030 nM. Besides, at human Fpn-GFP fusion, the 50% effective concentration (EC50) stood at 20600 nM.

In the case of `Cc1ccc(CNC(=O)c2csc(CCNCc3nc4ccccc4[nH]3)n2)nc1` [Example 97], the values for the concentration for half-maximal inhibition (IC50) at ferroportin (Fpn) and at human Fpn were 270 nM and 2130 nM, respectively. The 50% effective concentration (EC50) at human Fpn-GFP fusion amounted to 1810 nM.

Turning to `O=C(NCc1ncc(F)cc1F)c1csc(CCNCc2nc3ccccc3[nH]2)n1` [Example 108], the values for the 50% inhibitory concentration (IC50) at ferroportin (Fpn) and on human Fpn were 130 nM and 478 nM, respectively. Also, on human Fpn-GFP fusion, the EC50 worked out at 4120 nM.

With `Cc1cc(C)c(CNC(=O)c2csc(CCNCc3nc4ccccc4[nH]3)n2)cn1` [Example 105], the 50% inhibitory concentration (IC50) on ferroportin (Fpn) was found to be 77 nM; at human Fpn, 420 nM. On human Fpn-GFP fusion, the EC50 was 2630 nM.

On to `O=C(NCc1ncco1)c1csc(CCNCc2nc3ccccc3[nH]2)n1` [Example 85], for which the results for the half-inhibitory concentration (IC50) on ferroportin (Fpn) and at human Fpn were 29 nM and 1870 nM, respectively. For the same molecule, the EC50 on human Fpn-GFP fusion is 18700 nM.

For `O=C(NCc1ncccc1F)c1cc(CCNCc2nc3ccccc3[nH]2)ccn1` [compound 232], the values for the IC50 at ferroportin (Fpn) and on human Fpn were 1900 nM and 267 nM, respectively. At human Fpn-GFP fusion, the EC50 came out at 12000 nM.

As to `O=C(NCc1ncccc1F)c1cncc(CCNCc2nc3ccccc3[nH]2)c1` [compound 221], the half-inhibitory concentration (IC50) on ferroportin (Fpn) is 360 nM; at human Fpn it was 147 nM. In addition, the EC50 on human Fpn-GFP fusion is 16900 nM.

`O=C(NCc1cccnn1)c1csc(CCNCc2nc3ccccc3[nH]2)n1` [Example 87]: the IC50 at ferroportin (Fpn) is 190 nM; on human Fpn, 2250 nM. Also, the 50% effective concentration (EC50) at human Fpn-GFP fusion stood at 16600 nM.

For the molecule `O=C(CNC(=O)C1CN(CCc2nc3ccccc3[nH]2)C1)NCc1ncccc1F` [compound 201], the figures for the half-maximal inhibitory concentration (IC50) on ferroportin (Fpn) and at human Fpn were 1930 nM and 790 nM, respectively. Also, the half-maximal effective concentration (EC50) on human Fpn-GFP fusion came to 39400 nM.

With `O=C(NCc1ncccc1F)N1CCCC(CCNCCc2nc3ccccc3[nH]2)C1` (stereo not drawn) [compound 200], the IC50 came out at 3140 nM on ferroportin (Fpn) and 5650 nM at human Fpn. Also, on human Fpn-GFP fusion, the EC50 was 45100 nM.

As for `O=C(NCc1cnccn1)c1csc(CCNCc2nc3ccccc3[nH]2)n1` [Example 46], the IC50 on ferroportin (Fpn) stood at 590 nM; at human Fpn, 4340 nM. Besides, the 50% effective concentration (EC50) on human Fpn-GFP fusion was found to be 38700 nM.

`N#Cc1ccc(CNC(=O)c2csc(CCNCc3nc4ccccc4[nH]3)n2)cn1` [Example 56]: the IC50 at ferroportin (Fpn) stood at 410 nM; at human Fpn it was 566 nM. The EC50 at human Fpn-GFP fusion turned out to be 10400 nM.

In general, IC50 refers to the concentration needed to halve the response being measured. Broadly, the EC50 is the concentration at which the effect is half-maximal.
